Measured values reported in patent US20060252807A1, “Novel ortho-terphenyl inhibitors of p38 kinase and methods of treating inflammatory disorders” (Kalypsys, Inc., priority 2005, published 2006).

Target: T1, active p38 alpha enzyme (Upstate Biotechnology) (Homo sapiens, UniProt Q16539)
T1 construct: purchased Upstate Biotechnology
Test: p38α biochemical assay (ATP turnover, luminescent detection, Cambrex PKlight)
Conditions: p38α biochemical assay, Table 1 Biological Activity
Outline: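 Active p38α phosphorylates MapkapK2 whole protein with 1.4 uM final ATP, 2 h at 30C, in Tris/MOPS buffer with MgCl2, CaCl2, EGTA, EDTA, glycerol, β-mercaptoethanol and 1 mg/ml BSA. Compounds pin-delivered from DMSO; total ATP turnover read by luminescence after PKlight addition.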

T1 sequence (Q16539 whole entry): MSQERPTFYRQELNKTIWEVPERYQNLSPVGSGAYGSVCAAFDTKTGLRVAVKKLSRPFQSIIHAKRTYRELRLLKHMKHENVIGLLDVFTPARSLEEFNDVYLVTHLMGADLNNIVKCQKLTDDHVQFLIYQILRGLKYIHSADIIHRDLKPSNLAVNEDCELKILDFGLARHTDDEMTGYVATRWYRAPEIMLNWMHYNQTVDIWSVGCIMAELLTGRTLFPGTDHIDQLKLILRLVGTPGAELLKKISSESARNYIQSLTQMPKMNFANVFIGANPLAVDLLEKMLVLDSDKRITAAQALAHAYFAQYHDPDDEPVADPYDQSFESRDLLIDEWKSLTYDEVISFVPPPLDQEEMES

Compound	IC50 [nM]
CC(C)NC(=O)c1csc(-c2c(-c3ccc(F)cc3)noc2CN2CCNCC2)n1 [Example 28, 2-|3-(4-Fluoro-phenyl)-5-piperazin-1-ylmethyl-isoxazol-4-yl|-thiazole-4-carboxylic acid isopropylamide]	≤ 1000
CC(C)NC(=O)c1csc(-c2c(-c3ccc(F)cc3)noc2CNC(=O)CC#N)n1 [Example 575]	≤ 1000
CC(C)NC(=O)c1csc(-c2oc(CNC(=O)c3ccc4cccc(O)c4n3)nc2-c2ccc(F)cc2)n1 [Example 246]	≤ 1000
CC(C)NC(=O)c1csc(-c2oc(CN3CCN(C(=O)Cc4ccc(O)c(Cl)c4)CC3)nc2-c2ccc(F)cc2)n1 [Example 477]	> 1000
CC(C)NC(=O)c1csc(-c2c(-c3ccc(F)cc3)noc2CNC(=O)c2cc(F)c(F)c(O)c2F)n1 [Example 729]	> 1000
CC(C)NC(=O)c1csc(-c2c(-c3ccc(F)cc3)noc2CNC(=O)c2cc(F)c(Cl)cc2F)n1 [Example 734]	> 1000
CC(C)NC(=O)c1csc(-c2c(-c3ccc(F)cc3)noc2CNC(=O)C(O)CCl)n1 (stereo not shown) [Example 590]	≤ 1000

Same assay, conditions: p38α kinase; Table 1 Biological Activity

Compound	IC50 [nM]
COCCNCc1nc(-c2ccc(F)cc2)c(-c2nc(C(=O)NC(C)C)cs2)o1 [Example 1065]	≤ 1000
CC(C)NC(=O)c1csc(-c2oc(CNCc3ccc(F)c(F)c3)nc2-c2ccc(F)cc2)n1 [Example 1135]	> 1000
Cc1nc(-c2ccc(F)cc2)c(-c2nc(C(=O)Nc3ccccc3C(C)(C)C)cs2)s1 [Example 1997]	> 1000
CC(C)NC(=O)c1csc(-c2oc(CNCCCN(C)c3ccccc3)nc2-c2ccc(F)cc2)n1 [Example 1159]	> 1000
CC(C)NC(=O)c1csc(-c2c(-c3ccc(F)cc3)noc2CN2CCC[C@@H]2CO)n1 [Example 1526]	> 1000
Cc1nc(-c2ccc(F)cc2)c(-c2nc(C(=O)N[C@H](C)c3ccccc3)cs2)s1 [Example 1753]	≤ 1000
Cc1cc(C)c(NC(=O)c2csc(-c3sc(C)nc3-c3ccc(F)cc3)n2)c(C)c1 [Example 1986]	> 1000
Cc1ccc(N2CCN(Cc3nc(-c4ccc(F)cc4)c(-c4nc(C(=O)NC(C)C)cs4)o3)CC2)cc1C [Example 1266]	> 1000
CC(C)CCCC(C)NC(=O)c1csc(-c2c(-c3ccc(F)cc3)n[nH]c2C2CCNCC2)n1 (stereo not shown) [Example 2086]	> 1000
Cc1ccc(CNCc2nc(-c3ccc(F)cc3)c(-c3nc(C(=O)NC(C)C)cs3)o2)cc1 [Example 1101]	> 1000
CC(C)NC(=O)c1csc(-c2oc(CN3CCCCC3CO)nc2-c2ccc(F)cc2)n1 (stereo not shown) [Example 1214]	> 1000
CC(CCc1ccccc1)NC(=O)c1csc(-c2c(-c3ccc(F)cc3)n[nH]c2C2CCNCC2)n1 (stereo not shown) [Example 2117]	> 1000
COc1ccc(CNC(=O)c2csc(-c3c(-c4ccc(F)cc4)n[nH]c3C3CCNCC3)n2)cc1O [Example 2150]	≤ 1000
COc1ccc(Cl)cc1C(=O)N1CCC(c2[nH]nc(-c3ccc(F)cc3)c2-c2nc(C(=O)NC(C)C)cs2)CC1 [Example 952]	> 1000
COc1cc(OC)cc(C(=O)N2CCC(c3[nH]nc(-c4ccc(F)cc4)c3-c3nc(C(=O)NC(C)C)cs3)CC2)c1 [Example 941]	> 1000
COc1ccccc1CNCc1nc(-c2ccc(F)cc2)c(-c2nc(C(=O)NC(C)C)cs2)o1 [Example 1124]	> 1000
Cc1nc(-c2ccc(F)cc2)c(-c2nc(C(=O)N3CCN(c4cccc(C)c4C)CC3)cs2)s1 [Example 1913]	> 1000
CNC(=O)c1csc(-c2sc(C)nc2-c2ccc(F)cc2)n1 [Example 1705]	≤ 1000
CC(C)NC(=O)c1csc(-c2c(-c3ccc(F)cc3)n[nH]c2C2CCN(C(=O)c3c4ccccc4cc4ccccc34)CC2)n1 [Example 1017]	> 1000
CC(C)NC(=O)c1csc(-c2oc(CNc3ccccc3F)nc2-c2ccc(F)cc2)n1 [Example 1315]	> 1000
CC(C)NC(=O)c1csc(-c2c(-c3ccc(F)cc3)n[nH]c2C2CCN(C(=O)C(C(C)C)N(C)C(=O)OC(C)(C)C)CC2)n1 (stereo not shown) [Example 1032]	≤ 1000
